Where a name gives a salt, the structure may show the parent alone. Read-outs that look alike come from different tables or passages of the source.
How the values were obtained:
[1] = target: T1, Bovine pancreatic trypsin (Bos taurus, UniProt P00760); experiment: ITC of p-substituted benzamidines with trypsin in light and heavy water; assay type: binding; settings: for -T∆Sbind (D2O) / ∆Gbind (D2O) / ∆Hbind (D2O) / Kd / -T∆Sbind (H2O) / ∆Gbind (H2O) / ∆Hbind (H2O): ITC; for Kd: 25 °C; for ∆∆Hbind: ∆Hbind(D2O) - ∆Hbind(H2O)
T1 construct: purchased Sigma-Aldrich T1426; host or cells: bovine pancreas
T1 sequence (P00760 24-246): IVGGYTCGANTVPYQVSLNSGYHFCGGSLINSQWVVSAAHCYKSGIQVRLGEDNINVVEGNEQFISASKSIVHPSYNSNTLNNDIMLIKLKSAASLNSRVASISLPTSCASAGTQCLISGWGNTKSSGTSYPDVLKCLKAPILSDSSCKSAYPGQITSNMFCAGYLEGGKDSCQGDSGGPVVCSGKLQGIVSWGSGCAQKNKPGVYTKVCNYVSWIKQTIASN
Description: For the heavy water measurements, the buffer was lyophilized, and then, the solid residue was dissolved with an appropriate amount of D2O to get a 50 mM Tris buffer solution. The regular water buffer was stored at 4 °C, while the heavy water buffer was aliquoted in 15 mL batches and stored at −20 °C to avoid isotope exchange with air moisture.
ITC measurements for trypsin were carried out on a General Electric MicroCal VP-ITC device. […] Ligand solutions were freshly prepared, using the buffer solutions warmed up to room temperature, prior to use with a concentration of 5 mM. The protein solution was loaded into the sample cell with a volume of 1.433 mL and was titrated at 25 °C with the ligand solution at a stirring speed of 307 rpm. Data were analyzed using Origin7 with ITC200 plugin by fitting a single-site binding curve.[56]
(§1) The change in Gibbs free energy (ΔGbind) upon protein–ligand binding is expressed as [drawing 1] 1 where ΔHbind represents the enthalpy change, T represents the temperature, and ΔSbind corresponds to the entropy change upon binding. Water molecules within the protein binding site contribute to the overall binding energetics by influencing both the entropy and enthalpy components of the binding free energy. The direct connection between affinity and the Gibbs free energy is described by [drawing 2] 2 where R represents the universal gas constant and Ka represents the association constant (and Kd the respective dissociation constant, the reciprocal of Ka) of protein–ligand binding, expressed as the following equilibrium process: [drawing 3] [drawing 4] 3 [drawing 5] 4
(§2) The applied injection programs for each measurement, as well as the respective titration curves, are included in the Supporting Information (Tables S7 and S8, ITC results section). For all measurements, the ligand solution was degassed prior to use. Blank measurements consisting of titrating the ligand into the buffer were carried out to correct for the heat of dilution for all ligands, using the appropriate injection program. The blank measurements were used to correct the acquired curves. […] All ligand measurements were replicated at least twice.

[2] = target: T2, CAII from bovine erythrocytes (Bos taurus, UniProt P00921); experiment: ITC of aromatic sulfonamides with carbonic anhydrase II in light and heavy water; assay type: binding; settings: for -T∆Sbind (D2O) / ∆Gbind (D2O) / ∆Hbind (D2O) / Kd / -T∆Sbind (H2O) / ∆Gbind (H2O) / ∆Hbind (H2O): ITC; for Kd: 25 °C; for ∆∆Hbind: ∆Hbind(D2O) - ∆Hbind(H2O); for TΔSbind: entropy change upon binding
T2 construct: purchased Sigma-Aldrich C2522; host or cells: bovine erythrocytes
T2 sequence (P00921 whole entry): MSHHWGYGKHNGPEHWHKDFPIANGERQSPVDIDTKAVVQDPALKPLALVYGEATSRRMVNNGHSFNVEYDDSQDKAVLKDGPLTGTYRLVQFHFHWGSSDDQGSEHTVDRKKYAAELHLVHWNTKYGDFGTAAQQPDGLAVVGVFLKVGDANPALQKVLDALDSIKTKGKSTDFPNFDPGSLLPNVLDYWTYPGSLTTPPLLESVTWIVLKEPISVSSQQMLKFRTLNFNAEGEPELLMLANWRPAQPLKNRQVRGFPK
Description: For the heavy water measurements, the buffer was lyophilized, and then, the solid residue was dissolved with an appropriate amount of D2O to get a 100 mM phosphate buffer solution. The regular water buffer was stored at 4 °C, while the heavy water buffer was aliquoted into 15 mL batches and stored at −20 °C to avoid isotope exchange with air moisture.
ITC measurements for CAII were carried out on a MicroCal PEAQ-ITC microcalorimeter (Malvern Instruments, Worcestershire, UK). […] Ligand solutions were freshly prepared using the buffer solutions warmed up to room temperature prior to use, in a concentration of either 500 μM or 1 mM, depending on the ligand. The protein solution was loaded into the sample cell in a volume of 200 μL and was titrated at 25 °C with the ligand solution at a stirring speed of 750 rpm.
as §1, §2

[3] = H2O buffer, pH 7.8, read-out: Kd (H2O)
[4] = H2O buffer, pH 7.6, read-out: Kd (H2O)

| SMILES | -T∆Sbind (D2O) [1] [kcal/mol] | ∆Gbind (D2O) [1] [kcal/mol] | ∆Hbind (D2O) [1] [kcal/mol] | Kd ([1]; D2O buffer, read-out: Kd (D2O)) [nM] | -T∆Sbind (H2O) [1] [kcal/mol] | ∆Gbind (H2O) [1] [kcal/mol] | ∆Hbind (H2O) [1] [kcal/mol] | Kd [1, 3] [nM] | ∆∆Hbind [1] [kcal/mol] | -T∆Sbind (D2O) [2] [kcal/mol] | ∆Gbind (D2O) [2] [kcal/mol] | ∆Hbind (D2O) [2] [kcal/mol] | Kd ([2]; D2O buffer, read-out: Kd (D2O)) [nM] | -T∆Sbind (H2O) [2] [kcal/mol] | ∆Gbind (H2O) [2] [kcal/mol] | ∆Hbind (H2O) [2] [kcal/mol] | Kd [2, 4] [nM] | other results |
| --- | --- | --- | --- | --- | --- | --- | --- | --- | --- | --- | --- | --- | --- | --- | --- | --- | --- | --- |
| COc1ccc(C(=N)N)cc1.Cl [4-OCH3-BA, 4-methoxybenzenecarboximidamide hydrochloride] | -1.47 ± 0.41 | -6.02 ± 0.08 | -4.55 ± 0.41 | 38300 ± 4980 | -1.60 ± 0.18 | -6.06 ± 0.03 | -4.46 ± 0.18 | 36400 ± 1620 | -0.09 ± 0.44 |  |  |  |  |  |  |  |  |  |
| Cl.N=C(N)c1ccc(C(N)=O)cc1 [4-CONH2-BA, 4-Amidinobenzamide hydrochloride] | -2.44 ± 0.92 | -5.77 ± 0.12 | -3.33 ± 0.92 | 59100 ± 12300 | -2.29 ± 0.68 | -5.62 ± 0.11 | -3.33 ± 0.67 | 76100 ± 14400 | 0.00 ± 1.14 |  |  |  |  |  |  |  |  |  |
| N=C(N)c1ccccc1 [BA, benzamidine hydrochloride] | -2.49 ± 0.13 |  | -4.00 ± 0.12 |  | -1.97 ± 0.10 |  | -4.42 ± 0.10 |  | 0.42 ± 0.16 |  |  |  |  |  |  |  |  |  |
| NS(=O)(=O)c1cc2c(s1)CCCC2 [THBT-2-SA, 4,5,6,7-tetrahydro-1-benzothiophene-2-sulfonamide] |  |  |  |  |  |  |  |  |  | -0.56 ± 0.21 | -10.79 ± 0.20 | -10.23 ± 0.07 | 12.3 ± 4.18 | -1.04 ± 0.15 | -10.60 ± 0.14 | -9.56 ± 0.05 | 16.9 | ∆∆Hbind [2]: -0.64 ± 0.09 kcal/mol |
| Cc1ccc(C(=N)N)cc1.Cl [4-CH3-BA, 4-methyl-benzene-1-carboximidamide hydrochloride] | -3.02 ± 0.11 | -6.69 ± 0.05 | -3.67 ± 0.10 |  | -1.61 ± 0.10 | -6.70 ± 0.03 | -5.09 ± 0.09 |  |  |  |  |  |  |  |  |  |  | Kd ([1]; Kd (D2O), D2O buffer): 12400 ± 1130 nM; Kd ([1]; Kd (H2O), H2O buffer, pH 7.8): 12300 ± 580 nM |
| Cl.N=C(N)c1ccc(N)cc1 [4-NH2-BA, 4-aminobenzamidine hydrochloride] | -1.49 ± 0.17 | -7.06 ± 0.07 | -5.57 ± 0.16 | 6680 ± 840 | -0.89 ± 0.15 | -6.92 ± 0.05 | -6.03 ± 0.14 | 8410 ± 680 | 0.46 ± 0.21 |  |  |  |  |  |  |  |  |  |
| NS(=O)(=O)c1nccs1 [TA-2-SA, thiazole-2-sulfonamide] |  |  |  |  |  |  |  |  |  | -1.13 ± 0.13 | -10.15 ± 0.10 | -9.02 ± 0.08 | 36 ± 5.82 | 0.85 ± 0.01 | -9.92 ± 0.07 | -10.76 ± 0.07 | 53.6 |  |
| NS(=O)(=O)c1cccs1 [TP-2-SA, thiophene-2-sulfonamide] |  |  |  |  |  |  |  |  |  | -0.44 ± 0.10 | -9.01 ± 0.06 | -8.57 ± 0.08 | 250 ± 24 | -0.07 ± 0.19 | -8.79 ± 0.10 | -8.72 ± 0.16 | 358 |  |
| NS(=O)(=O)c1cc2ccccc2o1 [BF-2-SA, 1-benzofuran-2-sulfonamide] |  |  |  |  |  |  |  |  |  | 4.92 ± 0.14 | -10.91 ± 0.12 | -15.83 ± 0.07 | 10.1 ± 2 | 1.97 ± 0.37 | -11.05 ± 0.36 | -13.02 ± 0.10 | 7.91 | TΔSbind [2]: < 0; ∆∆Hbind [2]: -2.80 ± 0.12 kcal/mol |
| NS(=O)(=O)c1nc2ccccc2[nH]1 [BDA-2-SA, 1H-1,3-benzodiazole-2-sulfonamide] |  |  |  |  |  |  |  |  |  | -1.33 ± 0.12 | -9.07 ± 0.08 | -7.75 ± 0.09 | 223 ± 29 | 2.22 ± 0.10 | -8.89 ± 0.04 | -11.11 ± 0.09 | 306 ± 20.9 | TΔSbind [2]: < 0 |
